In patent publication US20050255178A1, “Enhancing the effectiveness of an inhaled therapeutic gas” (priority 2004, published 2005):
Values belong to the molecule of their own block, whether it stands above or below them.

Experiments:
[1] = test system: mouse model of pulmonary hypertension; experiment: Mouse model of pulmonary hypertension (U46619): pulmonary and systemic arterial pressures; format: in vivo, mice
Protocol: A mouse model of pulmonary hypertension was used to examine the combined effects of YC-1 and inhaled NO. Three mice (average weight 25 g) were anesthetized, their chest opened, catheters were placed in the carotid and pulmonary arteries, and pulmonary and systemic arterial pressures were recorded (FIG. 4). U46619, a thromboxane analogue was administered intravenously to induce pulmonary vasoconstriction. NO (4 parts per million) was added to the inspired gas, and pulmonary vasodilation was measured. Thereafter, NO inhalation was discontinued, and the duration of the pulmonary vasodilator effect was measured.
YC-1 was administered as boluses over one minute (10, 50 and 100 ug), and both pulmonary artery pressure and systemic blood pressure were measured. Thereafter, YC-1 was administered as an infusion (5 ug/min), and the rate of U46619 infusion was increased (2- to 3-fold) to re-establish pulmonary vasoconstriction. The pulmonary vasodilator response to breathing 4 ppm NO was measured, and duration of pulmonary vasodilation after discontinuing NO was assessed.

[2] = test system: U-46619-induced pulmonary vasoconstriction; experiment: CO inhaled alone or in combination with BAY 41-2272 during U-46619-induced pulmonary vasoconstriction; format: in vivo
Text: Systemic hemodynamics, lung gas exchange, and transpulmonary cGMP release were also unchanged by CO inhalation. Arterial concentrations of carboxyhemoglobin gradually rose from 1.0±0.2% to 4.7±0.4% (P<0.01) and from 1.4±0.1% to 5.2±0.2% (P<0.01), respectively, after breathing 500 ppm CO alone or in combination with BAY 41-2272.

awake lambs = experiment: U-46619-induced pulmonary hypertension in awake lambs: hemodynamics, gas exchange, cGMP release; format: in vivo
Protocol: In awake lambs instrumented with vascular catheters and a tracheostomy tube, the thromboxane analog U-46619 was infused intravenously to increase mean pulmonary arterial pressure (PAP) to 35 mm Hg. After a stabilization period, seven animals received an intravenous infusion of BAY 41-2272 (Alexis Biochemicals, Lausen, Switzerland) at 0.03, 0.1, and 0.3 mg·kg^−1·h^−1 administered for 30 minutes each. In another eight animals, inhaled NO (2, 10, and 20 ppm) was administered in random order for 10 minutes each followed by 15 minute NO-free periods. An intravenous infusion of BAY 41-2272 (0.1 mg·kg^−1·h^−1) was then started. After increasing the infusion of U-46619 to maintain PAP at 35 mmHg, NO was inhaled as before BAY 41-2272. In an additional eight lambs, which received an intravenous infusion of the NO synthase inhibitor, L-NAME (25 mg/kg+5 mg·kg^−1·h^−1), together with U-46619, NO was inhaled before and during the infusion of BAY 41-2272.
Data were analyzed using repeated measures ANOVA followed by Dunnett adjustment. A p<0.05 was considered statistically significant.

[3] = YC-1 boluses over one minute (10, 50 and 100 ug)
[4] = BAY 41-2272 0.1 mg·kg^−1·h^−1, L-NAME 25 mg/kg+5 mg·kg^−1·h^−1 iv, n=8
[5] = BAY 41-2272 0.1 mg·kg^−1·h^−1 iv with inhaled NO, P<0.05
[6] = BAY 41-2272 infusion with NO inhaled at 10 and 20 ppm
[7] = BAY 41-2272 infusion with NO inhaled at 10 and 20 ppm, P<0.05 vs. baseline PH
[8] = BAY 41-2272 iv infusion 0.03, 0.1, 0.3 mg·kg^−1·h^−1, 30 min each, n=7
[9] = during BAY 41-2272 infusion, inhalation of 10 and 20 ppm NO, P<0.01 vs. baseline PH
[10] = inhaled NO alone at 20 ppm, P<0.05

SMILES: OCc1ccc(-c2nn(Cc3ccccc3)c3ccccc23)o1 [YC-1, 3-(5′-hydroxymethyl-2′-furyl)-1-benzylindazole]
pulmonary vasodilator response to breathing NO ([1]; 4 ppm NO during YC-1 infusion (5 ug/min) vs NO alone): greater pulmonary vasodilator response than did breathing NO alone | systemic vasodilation on addition of NO inhalation to YC-1 ([1]; 4 ppm NO, YC-1 infusion 5 ug/min): did not cause systemic vasodilation | pulmonary vasodilation (pulmonary artery pressure) [1, 3]: induced both pulmonary and systemic vasodilation | systemic vasodilation (systemic blood pressure) [1, 3]: induced both pulmonary and systemic vasodilation | duration of pulmonary vasodilation after discontinuing NO inhalation ([1]; during YC-1 infusion (5 ug/min) vs before, P<0.01): greater during an infusion of YC-1 than before

plasma levels of BAY 41-2272 ([2]; in vivo): remained stable | plasma BAY 41-2272 concentrations (awake lambs; during the period of NO administrations, iv infusion 0.1 mg·kg^−1·h^−1): remained at a stable level
SMILES: Nc1nc(-c2nn(Cc3ccccc3F)c3ncccc23)ncc1C1CC1 [BAY 41-2272, 3-(4-amino-5-cyclopropylpyrimidine-2-yl)-1-(2-fluorobenzyl)-1H-pyrazolo[3,4-b]pyridine]
vasodilator effect on U-46619-induced pulmonary vasoconstriction ([2]; inhalation of CO following administration of / in combination with BAY 41-2272): no vasodilator effect | pulmonary vasodilation induced by BAY 41-2272 in presence of L-NAME (awake lambs; [4]): but not pulmonary vasodilation | systemic vasodilation induced by BAY 41-2272 in presence of L-NAME (awake lambs; [4]): abolished | reduction of PAP induced by inhaled NO (awake lambs; BAY 41-2272 0.1 mg·kg^−1·h^−1 iv with inhaled NO 2, 10, 20 ppm, P<0.05): markedly enhanced | reduction of PVRI induced by inhaled NO (awake lambs; [5]): markedly enhanced | reduction of PVRI/SVRI induced by inhaled NO (awake lambs; [5]): markedly enhanced | HR (awake lambs; [6]): remained unchanged | MAP (awake lambs; [6]): remained unchanged | central venous pressure (CVP) (awake lambs; [6]): remained unchanged | reduction of right ventricle stroke work index (RVSWI) (awake lambs; BAY 41-2272 infusion with NO inhaled at 10 and 20 ppm vs inhaled NO alone, P<0.05): to a greater extent than did inhaled NO alone | cardiac index (CI) (awake lambs; [7]): increments | pulmonary capillary wedge pressure (PCWP) (awake lambs; [7]): minor reductions | stroke volume index (SVI) (awake lambs; [7]): increments | systemic vascular resistance index (SVRI) (awake lambs; [7]): minor reductions | mean PAP (percent change from pre-treatment pulmonary hypertension value) (awake lambs; [8]): dose-dependent reductions | pulmonary vascular resistance index (PVRI) (percent change from pre-treatment pulmonary hypertension value) (awake lambs; [8]): dose-dependent reductions | reductions in mean PAP and PVRI compared with corresponding reductions in MAP and SVRI (awake lambs; BAY 41-2272 iv infusion 0.03-0.3 mg·kg^−1·h^−1, p<0.05): significantly greater | increase of transpulmonary cGMP release (awake lambs; co-administration of BAY 41-2272 and inhaled NO vs inhaled NO alone, P<0.05): to a greater extent than did inhaled NO alone | persistence of pulmonary vasodilation (T1/2) after NO was discontinued (awake lambs; during BAY 41-2272 infusion vs before, P<0.05): greater than that before the infusion | P(A-a)O2 (awake lambs; [9]): reduced | PaO2/FiO2 (awake lambs; [9]): augmented | Qs/Qt (awake lambs; [9]): reduced

SMILES: [C-]#[O+] [CO, carbon monoxide]
lung gas exchange ([2]; CO inhalation): unchanged | systemic hemodynamics ([2]; CO inhalation): unchanged | transpulmonary cGMP release ([2]; CO inhalation): unchanged | vasodilator effect on U-46619-induced pulmonary vasoconstriction ([2]; inhalation of CO alone): no vasodilator effect

SMILES: [N]=O [NO, Nitric oxide]
T1/2 of return of PAP to baseline pulmonary hypertension after NO was discontinued (awake lambs; inhaled NO alone): < 1 min | arterial methemoglobin concentrations (awake lambs; inhaled NO alone): no significant changes | pulmonary vasodilation (awake lambs; inhaled NO alone 2, 10, 20 ppm, 10 min each): dose-dependent, selective pulmonary vasodilation | transpulmonary cGMP release (awake lambs; inhaled NO alone 10 and 20 ppm, P<0.01): increased | P(A-a)O2 (awake lambs; [10]): reduced | PaO2/FiO2 (awake lambs; [10]): increased | Qs/Qt (awake lambs; [10]): reduced
